Measured values reported in ChEMBL document CHEMBL1201862, “PubChem BioAssay data set” (2004).
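Briefly, cells in 96-well plates were exposed to five compound concentrations for 48 h, and endpoints were estimated by linear interpolation. At the GI50, growth is halved.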 Activity calls are given as the source filed them. Cut-off read from the data, not from the text of the source: active = GI50 up to about 1.1 µM and inactive = higher.

Key:
Experiment in all cases: NCI tumour cell line growth inhibition, 48 h
CCRF-CEM = system: CCRF-CEM
MDA-N = system: MDA-N
SF-539 = system: SF-539
A549 = system: A549
Hs-578T = system: Hs-578T
KM12 = system: KM12
COLO 205 = system: COLO 205
SNB-19 = system: SNB-19
MDA-MB-435 = system: MDA-MB-435
U-251 = system: U-251
TK-10 = system: TK-10
SF-268 = system: SF-268
SF-295 = system: SF-295
HCT-116 = system: HCT-116
NCI/ADR-RES = system: NCI/ADR-RES
EKVX = system: EKVX
SK-MEL-28 = system: SK-MEL-28
K562 = system: K562
HCT-15 = system: HCT-15
UACC-62 = system: UACC-62
HL-60 = system: HL-60
HCC 2998 = system: HCC 2998
HOP-62 = system: HOP-62
ACHN = system: ACHN
HOP-92 = system: HOP-92
SW-620 = system: SW-620
UACC-257 = system: UACC-257
Malme-3M = system: Malme-3M
SK-MEL-5 = system: SK-MEL-5
PC-3 = system: PC-3
SR = system: SR
OVCAR-8 = system: OVCAR-8
CAKI-1 = system: CAKI-1
HT-29 = system: HT-29
DU-145 = system: DU-145
RXF 393 = system: RXF 393
NCI-H460 = system: NCI-H460
NCI-H23 = system: NCI-H23
LOX IMVI = system: LOX IMVI
NCI-H226 = system: NCI-H226
MDA-MB-231 = system: MDA-MB-231
MOLT-4 = system: MOLT-4
OVCAR-5 = system: OVCAR-5
M14 = system: M14
OVCAR-3 = system: OVCAR-3
MCF7 = system: MCF7
SK-OV-3 = system: SK-OV-3
RPMI-8226 = system: RPMI-8226
BT-549 = system: BT-549
IGROV-1 = system: IGROV-1
A498 = system: A498
NCI-H522 = system: NCI-H522
786-0 = system: 786-0
SNB-75 = system: SNB-75
UO-31 = system: UO-31

Question: For `O=P(O)(O)C(NCC(O)CN1CCOCC1)P(=O)(O)O` (stereo not given), which GI50 (CCRF-CEM) is on record?
Answer: > 100 µM (inactive)

Question: What about the GI50 (MDA-N) of the same compound?
Answer: > 100 µM (inactive)

Question: And the GI50 (SF-539)?
Answer: > 100 µM (inactive)

Question: What about the GI50 (A549) of the same compound?
Answer: > 100 µM (inactive)

Question: What about the GI50 (Hs-578T) of the same compound?
Answer: 10.2 µM (inactive)

Question: And the GI50 (KM12)?
Answer: > 100 µM (inactive)

Question: What about the GI50 (COLO 205) of the same compound?
Answer: > 100 µM (inactive)

Question: And the GI50 (SNB-19)?
Answer: > 100 µM (inactive)

Question: What about the GI50 (MDA-MB-435) of the same compound?
Answer: > 100 µM (inactive)

Question: What about the GI50 (U-251) of the same compound?
Answer: > 100 µM (inactive)

Question: What about the GI50 (TK-10) of the same compound?
Answer: > 100 µM (inactive)

Question: And the GI50 (SF-268)?
Answer: > 100 µM (inactive)

Question: What about the GI50 (SF-295) of the same compound?
Answer: > 100 µM (inactive)

Question: What about the GI50 (HCT-116) of the same compound?
Answer: > 100 µM (inactive)

Question: And the GI50 (NCI/ADR-RES)?
Answer: > 100 µM (inactive)

Question: And the GI50 (EKVX)?
Answer: > 100 µM (inactive)

Question: What about the GI50 (SK-MEL-28) of the same compound?
Answer: > 100 µM (inactive)

Question: And the GI50 (K562)?
Answer: > 100 µM (inactive)

Question: What about the GI50 (HCT-15) of the same compound?
Answer: > 100 µM

Question: What about the GI50 (UACC-62) of the same compound?
Answer: > 100 µM (inactive)

Question: And the GI50 (HL-60)?
Answer: > 100 µM (inactive)

Question: And the GI50 (HCC 2998)?
Answer: > 100 µM (inactive)

Question: And the GI50 (HOP-62)?
Answer: > 100 µM (inactive)

Question: What about the GI50 (ACHN) of the same compound?
Answer: > 100 µM (inactive)

Question: What about the GI50 (HOP-92) of the same compound?
Answer: > 100 µM (inactive)

Question: What about the GI50 (SW-620) of the same compound?
Answer: > 100 µM (inactive)

Question: And the GI50 (UACC-257)?
Answer: > 100 µM (inactive)

Question: And the GI50 (Malme-3M)?
Answer: > 100 µM (inactive)

Question: And the GI50 (SK-MEL-5)?
Answer: > 100 µM (inactive)

Question: What about the GI50 (PC-3) of the same compound?
Answer: > 100 µM (inactive)

Question: What about the GI50 (SR) of the same compound?
Answer: > 100 µM (inactive)

Question: And the GI50 (OVCAR-8)?
Answer: > 100 µM (inactive)

Question: And the GI50 (CAKI-1)?
Answer: > 100 µM (inactive)

Question: What about the GI50 (HT-29) of the same compound?
Answer: > 100 µM (inactive)

Question: What about the GI50 (DU-145) of the same compound?
Answer: > 100 µM (inactive)

Question: What about the GI50 (RXF 393) of the same compound?
Answer: > 100 µM (inactive)

Question: What about the GI50 (NCI-H460) of the same compound?
Answer: > 100 µM (inactive)

Question: What about the GI50 (NCI-H23) of the same compound?
Answer: > 100 µM (inactive)

Question: What about the GI50 (LOX IMVI) of the same compound?
Answer: > 100 µM (inactive)

Question: What about the GI50 (NCI-H226) of the same compound?
Answer: > 100 µM (inactive)

Question: What about the GI50 (MDA-MB-231) of the same compound?
Answer: > 100 µM (inactive)

Question: And the GI50 (MOLT-4)?
Answer: > 100 µM (inactive)

Question: And the GI50 (OVCAR-5)?
Answer: > 100 µM (inactive)

Question: What about the GI50 (M14) of the same compound?
Answer: > 100 µM (inactive)

Question: What about the GI50 (OVCAR-3) of the same compound?
Answer: > 100 µM (inactive)

Question: What about the GI50 (MCF7) of the same compound?
Answer: > 100 µM (inactive)

Question: And the GI50 (SK-OV-3)?
Answer: > 100 µM (inactive)

Question: And the GI50 (RPMI-8226)?
Answer: > 100 µM (inactive)

Question: And the GI50 (BT-549)?
Answer: > 100 µM (inactive)

Question: And the GI50 (IGROV-1)?
Answer: > 100 µM (inactive)

Question: And the GI50 (A498)?
Answer: > 100 µM (inactive)

Question: And the GI50 (NCI-H522)?
Answer: > 100 µM (inactive)

Question: And the GI50 (786-0)?
Answer: > 100 µM (inactive)

Question: What about the GI50 (SNB-75) of the same compound?
Answer: > 100 µM (inactive)

Question: And the GI50 (UO-31)?
Answer: > 100 µM (inactive)
